Measured values from ChEMBL document CHEMBL1201862, “PubChem BioAssay data set” (2004).
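Results reflect a 48-hour exposure of cells in 96-well plates to compound at five concentrations. GI50 marks 50% less growth.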 Activity calls are given as the source filed them. Cut-off read from the data, not from the text of the source: active = GI50 up to about 1.1 µM and inactive = higher.

Columns and labels:
Experiment in all cases: growth of human tumour cells (NCI), 48 h
[1] = tested on: HT-29
[2] = tested on: TK-10
[3] = tested on: PC-3
[4] = tested on: OVCAR-5
[5] = tested on: SNB-75
[6] = tested on: HCT-15
[7] = tested on: SF-268
[8] = tested on: SNB-19
[9] = tested on: UACC-62
[10] = tested on: A549
[11] = tested on: SR
[12] = tested on: CCRF-CEM
[13] = tested on: CAKI-1
[14] = tested on: SK-OV-3
[15] = tested on: NCI/ADR-RES
[16] = tested on: OVCAR-4
[17] = tested on: ACHN
[18] = tested on: NCI-H460
[19] = tested on: RPMI-8226
[20] = tested on: HCT-116

Row | SMILES | GI50 [1] | GI50 [2] | GI50 [3] | GI50 [4] | GI50 [5] | GI50 [6] [µM] | GI50 [7] | GI50 [8] | GI50 [9] | GI50 [10] | GI50 [11] | GI50 [12] | GI50 [13] | GI50 [14] | GI50 [15] | GI50 [16] | GI50 [17] | GI50 [18] | GI50 [19] | GI50 [20]
1 | O=[N+]([O-])c1ccc(Cl)cc1C1ON=C(c2ccccc2)N1C12CC3CC(CC(C3)C1)C2 (configuration not stated) | > 100 µM (inactive) | > 100 µM (inactive) | > 100 µM (inactive) | > 100 µM (inactive) | 0.0245 µM (active) | > 100 | > 100 µM (inactive) | > 100 µM (inactive) | > 100 µM (inactive) | > 100 µM (inactive) | > 100 µM (inactive) | > 100 µM (inactive) | > 100 µM (inactive) | > 100 µM (inactive) | > 100 µM (inactive) | > 100 µM (inactive) | > 100 µM (inactive) | > 100 µM (inactive) | > 100 µM (inactive) | 86.9 µM (inactive)
2 | O=S(=O)(c1ccc(/N=C2\NC(c3ccc(O)cc3)(c3ccccc3O)c3ccccc32)cc1)c1ccc(/N=C2/NC(c3ccc(O)cc3)(c3ccccc3O)c3ccccc32)cc1 (configuration not stated) | 3.09 µM (inactive) | 13.8 µM (inactive) | 5.05 µM (inactive) | 9.27 µM (inactive) | 3.32 µM (inactive) | 5.79 | 3.38 µM (inactive) | 5.08 µM (inactive) | 3.85 µM (inactive) | 6.15 µM (inactive) | 5.38 µM (inactive) | 3.37 µM (inactive) | 12.9 µM (inactive) | 9.82 µM (inactive) | 24.7 µM (inactive) | 2.87 µM (inactive) | 20.2 µM (inactive) | 3.7 µM (inactive) | 5.22 µM (inactive) | 2.23 µM (inactive)
3 | COc1ccc(/C=C2\N=C(N3CCOCC3)NC2=O)cc1 | > 100 µM (inactive) | > 100 µM (inactive) | > 100 µM (inactive) | > 100 µM (inactive) | 58.3 µM (inactive) | > 100 | > 100 µM (inactive) | > 100 µM (inactive) | > 100 µM (inactive) | > 100 µM (inactive) | > 100 µM (inactive) | > 100 µM (inactive) | > 100 µM (inactive) | > 100 µM (inactive) | > 100 µM (inactive) | > 100 µM (inactive) | > 100 µM (inactive) | – | > 100 µM (inactive) | > 100 µM (inactive)
4 | C=C(C)[C@H]1C2=CC(C)=C(O2)[C@@H](O[C@@H]2c3oc(cc3C)[C@H](C(=C)C)[C@H]3C=C(CC[C@H]2C(=C)C)C(=O)O3)[C@H](C(=C)C)CCC2=C[C@H]1OC2=O | – | > 100 µM (inactive) | > 100 µM (inactive) | > 100 µM (inactive) | > 100 µM (inactive) | > 100 | > 100 µM (inactive) | > 100 µM (inactive) | > 100 µM (inactive) | > 100 µM (inactive) | > 100 µM (inactive) | > 100 µM (inactive) | > 100 µM (inactive) | > 100 µM (inactive) | > 100 µM (inactive) | > 100 µM (inactive) | > 100 µM (inactive) | > 100 µM (inactive) | > 100 µM (inactive) | > 100 µM (inactive)
5 | Cn1c2ccccc2n2c3ncccc3c(=S)c(C#N)c12 | > 100 µM (inactive) | – | > 100 µM (inactive) | > 100 µM (inactive) | 40.3 µM (inactive) | > 100 | > 100 µM (inactive) | > 100 µM (inactive) | > 100 µM (inactive) | > 100 µM (inactive) | 71.4 µM (inactive) | > 100 µM (inactive) | > 100 µM (inactive) | > 100 µM (inactive) | > 100 µM (inactive) | > 100 µM (inactive) | > 100 µM (inactive) | 90.4 µM (inactive) | > 100 µM (inactive) | > 100 µM (inactive)
6 | CC1=CC(=O)c2cccc(O)c2C1=O | 4.27 µM (inactive) | 2.43 µM (inactive) | 2.1 µM (inactive) | 8.09 µM (inactive) | 8.73 µM (inactive) | 1.56 | 6.76 µM (inactive) | 8.07 µM (inactive) | 1.96 µM (inactive) | 14.9 µM (inactive) | 1.8 µM (inactive) | 1.91 µM (inactive) | 1.88 µM (inactive) | 14.3 µM (inactive) | 1.82 µM (inactive) | 1.92 µM (inactive) | 1.78 µM (inactive) | 5.75 µM (inactive) | 3.53 µM (inactive) | 1.91 µM (inactive)
7 | CC(=O)OCC1OC(N2C(c3ccccc3)=CC(c3ccco3)C(C#N)=C2S)C(OC(C)=O)C(OC(C)=O)C1OC(C)=O (configuration not stated) | 5.94 µM (inactive) | 18.7 µM (inactive) | 11.5 µM (inactive) | 6.9 µM (inactive) | 2.55 µM (inactive) | > 100 | 4.63 µM (inactive) | 11.9 µM (inactive) | 13.6 µM (inactive) | 9.44 µM (inactive) | 7.85 µM (inactive) | 12.6 µM (inactive) | 14.7 µM (inactive) | 21.7 µM (inactive) | 4.78 µM (inactive) | 3.33 µM (inactive) | 7.85 µM (inactive) | 14.7 µM (inactive) | 9.1 µM (inactive) | 3.18 µM (inactive)
8 | Nc1nc(NCc2ccccc2)cc(NCc2ccccc2)n1 | 2.88 µM (inactive) | 8.02 µM (inactive) | 3.64 µM (inactive) | 16.9 µM (inactive) | 3.23 µM (inactive) | 3.52 | 4 µM (inactive) | 8.39 µM (inactive) | 3.67 µM (inactive) | 9.48 µM (inactive) | 2.72 µM (inactive) | 4.24 µM (inactive) | 2.64 µM (inactive) | 9.08 µM (inactive) | 3.23 µM (inactive) | 9.89 µM (inactive) | 7.26 µM (inactive) | 4.73 µM (inactive) | 3.06 µM (inactive) | 3.45 µM (inactive)
9 | Nc1cccc2cc(S(=O)(=O)Nc3ccc(C(=O)O)cc3)ccc12 | > 100 µM (inactive) | > 100 µM (inactive) | > 100 µM (inactive) | > 100 µM (inactive) | 98.2 µM (inactive) | > 100 | > 100 µM (inactive) | > 100 µM (inactive) | > 100 µM (inactive) | > 100 µM (inactive) | > 100 µM (inactive) | > 100 µM (inactive) | > 100 µM (inactive) | > 100 µM (inactive) | > 100 µM (inactive) | > 100 µM (inactive) | > 100 µM (inactive) | > 100 µM (inactive) | > 100 µM (inactive) | > 100 µM (inactive)
10 | C=CCOc1ccc(C2(O)c3ccccc3C3=NCCCN32)cc1 (configuration not stated) | > 65.9 µM (inactive) | > 100 µM (inactive) | 33.5 µM (inactive) | 72.4 µM (inactive) | 32 µM (inactive) | > 62.2 | > 61.4 µM (inactive) | 47.8 µM (inactive) | 25.7 µM (inactive) | 55.3 µM (inactive) | 25.2 µM (inactive) | 38 µM (inactive) | > 62.8 µM (inactive) | > 95.9 µM (inactive) | > 100 µM (inactive) | > 71 µM (inactive) | 41.6 µM (inactive) | > 100 µM (inactive) | 26.4 µM (inactive) | 49.9 µM (inactive)
